From patent US8518700B2, “Composition for reprogramming somatic cells to generate induced pluripotent stem cells, comprising Bmi1 and low molecular weight substance, and method for generating induced pluripotent stem cells using the same” (Korea University Research and Business Foundation, priority 2010, dated 2013)

Experiments:
Type in all cases: cell-based
[1] = system: Bmi1-transduced mouse somatic cells (neurosphere-like cells); experiment: Reprogramming of neurosphere-like cells from Bmi1-transduced mouse somatic cells (EGF-free neural stem cell condition) into iPS cells; details: 1 μM BIX01294 and 0.5 μM RG108 together; one week; condition used for mouse embryonic stem cells
Procedure: (§1) Mouse somatic cells, in detail, mouse fibroblasts were employed to generate embryonic stem cell-like cells. Embryos were taken from CF1 strain mice on embryonic day 13.5. Cells were cultured in DMEM (high glucose, w/o sodium pyruvate) supplemented with 10% FBS (Fetal bovine serum), 0.1 mM non-essential amino acid, 1% penicillin/streptomycin and 0.1 mM β-mercaptoethanol in tissue culture flasks, after which fibroblasts at the 3rd passage were seeded at a density of 2×10^5 cells/well into 6-well plates.
(§2) For use in gene transfer, retrovirus particles were prepared from the PT67 packaging cell line. In this context, a pBabe puro Bmi1 (from Dr. G. P. Dimri, Evanston Northwestern Healthcare Research Institute, Feinberg School of Medicine, Northwestern University, Evanston, Ill. 60201, USA), constructed by inserting a human Bmi1 gene (NCBI accession No. L13689) into a pBabe puro vector, was transfected into a PT67 packaging cell line (Clontech) with the aid of Turbofect (Fermentas), followed by drug selection with puromycine (3 μg/ml, BD bioscience). The PT67 packaging cell line allowed the production of high-titer viruses capable of infecting a broad range of mammalian host cells.
(§3) The expression of each gene was monitored with RT-PCR. […]

[2] = system: Bmi1-transduced mouse somatic cells (Oct4-positive cells); experiment: Reprogramming of Oct4-positive Bmi1-transduced mouse somatic cells into iPS cells by treatment with low molecular weight substances; details: 0.5 μM PD0325901 and 3 μM CHIR99021 together; culture conditions of mouse embryonic stem cells
Procedure: as §1, §2, §3

[3] = system: Bmi1-transduced mouse somatic cells (neurosphere-like cells); experiment: Reprogramming of neurosphere-like cells from Bmi1-transduced mouse somatic cells (neural stem cell condition with bFGF and EGF) into iPS cells; details: 2 mM VPA; one week; condition used for mouse embryonic stem cells
Procedure: as §1, §2, §3

| Compound | Reprogramming into iPS cells (BC-iPS 2) [1] | Reprogramming into iPS cells (BC-iPS 1) [2] | other results |
| --- | --- | --- | --- |
| O=C(O)[C@H](Cc1c[nH]c2ccccc12)N1C(=O)c2ccccc2C1=O [RG108, N-Phthalyl-L-tryptophan] | establish iPS cells | – | – |
| O=C(NOC[C@H](O)CO)c1ccc(F)c(F)c1Nc1ccc(I)cc1F [PD0325901] | – | establish induced stem cells | – |
| COc1cc2nc(N3CCCN(C)CC3)nc(NC3CCN(Cc4ccccc4)CC3)c2cc1OC [BIX01294, 2-(Hexahydro-4-methyl-1H-1,4-diazepin-1-yl)-6,7-dimethoxy-N-[1-(phenylmethyl)-4-piperidinyl]4-quinazolinamine] | establish iPS cells | – | – |
| CCCC(CCC)C(=O)O [VPA, 2-propylenepentanoic acid] | – | – | Reprogramming into iPS cells [3]: iPS cells were established |
| Cc1c[nH]c(-c2cnc(NCCNc3ccc(C#N)cn3)nc2-c2ccc(Cl)cc2Cl)n1 [CHIR99021] | – | establish induced stem cells | – |
